{"source": "patent US9221827B2", "about": "“Antimicrobial compounds and methods of making and using the same” (Melinta Therapeutics, Inc., priority 2011, dated 2015)"}
{"test_system": "Escherichia coli strain ATCC25922", "assay": "standard microdilution assay to determine minimum inhibitory concentrations (MICs)", "assay_type": "cell-based", "conditions": "Escherichia coli strain ATCC25922, microdilution", "how_it_was_run": "(§1)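 MICs come from CLSI-guided microdilution in 100 μl, run alongside reference-strain performance standards. Values appear as \"+\" or \"−\" relative to 16 micrograms/ml, with \"N/A\" marking missing data.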"}
{"smiles": "C[C@H](N)CCCc1cc(-c2cc3cn(-c4ccc([C@H](C)NCCCNC(=N)N)cc4)c(=O)nc3[nH]2)cc2c1OCCO2", "note": "[Compound 469]", "E. coli ATCC25922 MIC": "+ (a “+” indicates that the compound has an MIC value of 16 micrograms/ml or less)"}
{"smiles": "C[C@H](N)CCCc1cc(SC(F)(F)F)c(F)c(-c2cc3cn(-c4ccc([C@H](C)NCCCNC(=N)N)cc4)c(=O)nc3[nH]2)c1", "note": "[Compound 471]", "E. coli ATCC25922 MIC": "+ (a “+” indicates that the compound has an MIC value of 16 micrograms/ml or less)"}
{"smiles": "C=CC[C@H](NCCCNC(=N)N)c1ccc(-n2cc3cc(-c4cc(CCC[C@H](C)N)cc(Cl)c4F)[nH]c3nc2=O)cc1", "note": "[Compound 472]", "E. coli ATCC25922 MIC": "+ (a “+” indicates that the compound has an MIC value of 16 micrograms/ml or less)"}
{"smiles": "C=C[C@H](NCCCNC(=N)N)c1ccc(-n2cc3cc(-c4cc(CCC[C@H](C)N)cc(SC(F)(F)F)c4)[nH]c3nc2=O)cc1", "note": "[Compound 473]", "E. coli ATCC25922 MIC": "+ (a “+” indicates that the compound has an MIC value of 16 micrograms/ml or less)"}
{"smiles": "C=CC[C@H](NCCCNC(=N)N)c1ccc(-n2cc3cc(-c4cc(CCC[C@H](C)N)cc(C(F)(F)F)c4)[nH]c3nc2=O)cc1", "note": "[Compound 474]", "E. coli ATCC25922 MIC": "+ (a “+” indicates that the compound has an MIC value of 16 micrograms/ml or less)"}
{"smiles": "C=C[C@H](NCCCNC(=N)N)c1ccc(-n2cc3cc(-c4cc(CCC[C@H](C)N)cc(Cl)c4F)[nH]c3nc2=O)cc1", "note": "[Compound 475]", "E. coli ATCC25922 MIC": "+ (a “+” indicates that the compound has an MIC value of 16 micrograms/ml or less)"}
{"smiles": "N=C(N)NCCCNCc1ccc(-n2cc3cc(-c4cc(CCC5COCC5N)cc(OC(F)(F)F)c4)[nH]c3nc2=O)cc1", "note": "(stereo not shown) [Compound 476]", "E. coli ATCC25922 MIC": "+ (a “+” indicates that the compound has an MIC value of 16 micrograms/ml or less)"}
{"smiles": "C[C@H](NCCCNC(=N)N)c1ccc(-n2cc3cc(-c4cc(CCC5COCC5N)cc(OC(F)(F)F)c4)[nH]c3nc2=O)cc1", "note": "(stereo partly shown) [Compound 477]", "E. coli ATCC25922 MIC": "+ (a “+” indicates that the compound has an MIC value of 16 micrograms/ml or less)"}
{"smiles": "CC(N)COC(C)c1cc(-c2cc3cn(-c4ccc([C@H](C)NCCCNC(=N)N)cc4)c(=O)nc3[nH]2)cc(C(F)(F)F)c1", "note": "(stereo partly shown) [Compound 478]", "E. coli ATCC25922 MIC": "+ (a “+” indicates that the compound has an MIC value of 16 micrograms/ml or less)"}
{"smiles": "CCC(N)COC(C)c1cc(-c2cc3cn(-c4ccc(CNCCCNC(=N)N)cc4)c(=O)nc3[nH]2)cc(C(F)(F)F)c1", "note": "(stereo not shown) [Compound 479]", "E. coli ATCC25922 MIC": "+ (a “+” indicates that the compound has an MIC value of 16 micrograms/ml or less)"}
{"smiles": "CCC(N)COC(C)c1cc(-c2cc3cn(-c4ccc([C@H](C)NCCCNC(=N)N)cc4)c(=O)nc3[nH]2)cc(C(F)(F)F)c1", "note": "(stereo partly shown) [Compound 480]", "E. coli ATCC25922 MIC": "+ (a “+” indicates that the compound has an MIC value of 16 micrograms/ml or less)"}
{"smiles": "C=CC(NCCCNC(=N)N)c1ccc(-n2cc3cc(-c4cc(CCCC(C)N)cc(Cl)c4F)[nH]c3nc2=O)cc1", "note": "(stereo not shown) [Compound 481]", "E. coli ATCC25922 MIC": "+ (a “+” indicates that the compound has an MIC value of 16 micrograms/ml or less)"}
{"test_system": "Escherichia coli strain ATCC25922", "assay": "standard microdilution assay to determine minimum inhibitory concentrations (MICs)", "assay_type": "cell-based", "conditions": "Escherichia coli strain ATCC25922, standard microdilution assay", "how_it_was_run": "as §1"}
{"smiles": "Cc1c(CC(C)C)cc(CCC[C@H](C)N)cc1-c1cc2cn(-c3ccc([C@H](C)NCCCNC(=N)N)cc3)c(=O)nc2[nH]1", "note": "[Compound 453]", "E. coli ATCC25922 MIC": "+ (a “+” indicates that the compound has an MIC value of 16 micrograms/ml or less)"}
{"smiles": "CC(C)(N)COCc1cc(-c2cc3cn(-c4ccc(CNCCCNC(=N)N)cc4)c(=O)nc3[nH]2)cc(C(F)(F)F)c1", "note": "[Compound 454]", "E. coli ATCC25922 MIC": "+ (a “+” indicates that the compound has an MIC value of 16 micrograms/ml or less)"}
{"smiles": "C[C@H](NCCCNC(=N)N)c1ccc(-n2cc3cc(-c4cc(COCC(C)(C)N)cc(C(F)(F)F)c4)[nH]c3nc2=O)cc1", "note": "[Compound 455]", "E. coli ATCC25922 MIC": "+ (a “+” indicates that the compound has an MIC value of 16 micrograms/ml or less)"}
{"smiles": "C[C@H](N)CCCc1cc2c(c(-c3cc4cn(-c5ccc([C@H](C)NCCCNC(=N)N)cc5)c(=O)nc4[nH]3)c1)OCCC2=O", "note": "[Compound 456]", "E. coli ATCC25922 MIC": "+ (a “+” indicates that the compound has an MIC value of 16 micrograms/ml or less)"}
{"smiles": "C[C@H](N)CCCc1cc2c(c(-c3cc4cn(-c5ccc([C@H](C)NCCCNC(=N)N)cc5)c(=O)nc4[nH]3)c1)CC=C2", "note": "[Compound 457]", "E. coli ATCC25922 MIC": "+ (a “+” indicates that the compound has an MIC value of 16 micrograms/ml or less)"}
{"smiles": "C[C@H](N)CCCc1cc(CC(C)(C)C)c(F)c(-c2cc3cn(-c4ccc([C@H](C)NCCCNC(=N)N)cc4)c(=O)nc3[nH]2)c1", "note": "[Compound 458]", "E. coli ATCC25922 MIC": "+ (a “+” indicates that the compound has an MIC value of 16 micrograms/ml or less)"}
{"smiles": "N=C(N)NCCCNCc1ccc(-n2cc3cc(-c4cc(COC5COCC5N)cc(OC(F)(F)F)c4)[nH]c3nc2=O)cc1", "note": "(stereo not shown) [Compound 459]", "E. coli ATCC25922 MIC": "+ (a “+” indicates that the compound has an MIC value of 16 micrograms/ml or less)"}
{"smiles": "C[C@H](NCCCNC(=N)N)c1ccc(-n2cc3cc(-c4cc(COC5COCC5N)cc(OC(F)(F)F)c4)[nH]c3nc2=O)cc1", "note": "(stereo partly shown) [Compound 460]", "E. coli ATCC25922 MIC": "+ (a “+” indicates that the compound has an MIC value of 16 micrograms/ml or less)"}
{"smiles": "C[C@H](N)CCCc1cc2c(c(-c3cc4cn(-c5ccc([C@H](C)NCCCNC(=N)N)cc5)c(=O)nc4[nH]3)c1)CCC2=O", "note": "[Compound 461]", "E. coli ATCC25922 MIC": "+ (a “+” indicates that the compound has an MIC value of 16 micrograms/ml or less)"}
{"smiles": "C[C@H](N)CCCc1cc(F)c(F)c(-c2cc3cn(-c4ccc([C@H](C)NCCCNC(=N)N)cc4)c(=O)nc3[nH]2)c1", "note": "[Compound 462]", "E. coli ATCC25922 MIC": "+ (a “+” indicates that the compound has an MIC value of 16 micrograms/ml or less)"}
{"smiles": "C[C@H](N)CCCc1cc(F)c(F)c(-c2cc3cn(-c4ccc(CNCCCNC(=N)N)cc4)c(=O)nc3[nH]2)c1", "note": "[Compound 463]", "E. coli ATCC25922 MIC": "+ (a “+” indicates that the compound has an MIC value of 16 micrograms/ml or less)"}
{"smiles": "C[C@H](N)CCCc1cc(-c2cc3cn(-c4ccc([C@H](C)NCCCNC(=N)N)cc4)c(=O)nc3[nH]2)cc(F)c1F", "note": "[Compound 464]", "E. coli ATCC25922 MIC": "+ (a “+” indicates that the compound has an MIC value of 16 micrograms/ml or less)"}
{"smiles": "C[C@H](N)CCCc1cc(-c2cc3cn(-c4ccc(CNCCCNC(=N)N)cc4)c(=O)nc3[nH]2)cc(F)c1F", "note": "[Compound 465]", "E. coli ATCC25922 MIC": "+ (a “+” indicates that the compound has an MIC value of 16 micrograms/ml or less)"}
{"smiles": "C[C@H](N)CCCc1cc(-c2cc3cn(-c4ccc([C@H](C)NCCCNC(=N)N)cc4)c(=O)nc3[nH]2)c(F)c(C2CCOC2)c1", "note": "(stereo partly shown) [Compound 466]", "E. coli ATCC25922 MIC": "+ (a “+” indicates that the compound has an MIC value of 16 micrograms/ml or less)"}
{"smiles": "Cc1cc(CCC[C@H](C)N)cc(-c2cc3cn(-c4ccc(CNCCCNC(=N)N)cc4)c(=O)nc3[nH]2)c1C", "note": "[Compound 467]", "E. coli ATCC25922 MIC": "+ (a “+” indicates that the compound has an MIC value of 16 micrograms/ml or less)"}
{"smiles": "Cc1cc(CCC[C@H](C)N)cc(-c2cc3cn(-c4ccc([C@H](C)NCCCNC(=N)N)cc4)c(=O)nc3[nH]2)c1C", "note": "[Compound 468]", "E. coli ATCC25922 MIC": "+ (a “+” indicates that the compound has an MIC value of 16 micrograms/ml or less)"}
